According to patent US20070037807A1, “Pyridine compounds as inhibitors of dipeptidyl peptidase IV” (priority 2003, published 2007):
Where a name gives a salt, the structure may show the parent alone.

target: T1, dipeptidyl peptidase IV (Rattus norvegicus, UniProt P14740); experiment: Determination of dipeptidyl peptidase IV inhibitory activity in rat plasma; format: biochemical, SD rat; settings: not given
T1 construct: from tissue; host or cells: SD rat blood plasma
Method: Determination of Dipeptidyl Peptidase IV Inhibitory Activity in Rat Plasma
An N,N-dimethylformamide solution (1 μL) containing the test compound was added to a mixture of water (69 μL), 1 M Tris-hydrochloride buffer (10 μL, pH 7.5) and 1 mM aqueous Gly-Pro-p-NA solution (100 μL) to prepare a mixed solution. […] At the same time, an increase (ΔODc) in absorbance of the reaction mixture without the test compound, and an increase (ΔODb) in absorbance of the reaction mixture without the test compound and the enzyme were determined and percent inhibition of dipeptidyl peptidase IV enzyme activity was calculated from the following formula: {1-[(ΔODs−ΔODb)/(ΔODc−ΔODb)]}×100

T1 sequence (P14740 37-767 limits assumed): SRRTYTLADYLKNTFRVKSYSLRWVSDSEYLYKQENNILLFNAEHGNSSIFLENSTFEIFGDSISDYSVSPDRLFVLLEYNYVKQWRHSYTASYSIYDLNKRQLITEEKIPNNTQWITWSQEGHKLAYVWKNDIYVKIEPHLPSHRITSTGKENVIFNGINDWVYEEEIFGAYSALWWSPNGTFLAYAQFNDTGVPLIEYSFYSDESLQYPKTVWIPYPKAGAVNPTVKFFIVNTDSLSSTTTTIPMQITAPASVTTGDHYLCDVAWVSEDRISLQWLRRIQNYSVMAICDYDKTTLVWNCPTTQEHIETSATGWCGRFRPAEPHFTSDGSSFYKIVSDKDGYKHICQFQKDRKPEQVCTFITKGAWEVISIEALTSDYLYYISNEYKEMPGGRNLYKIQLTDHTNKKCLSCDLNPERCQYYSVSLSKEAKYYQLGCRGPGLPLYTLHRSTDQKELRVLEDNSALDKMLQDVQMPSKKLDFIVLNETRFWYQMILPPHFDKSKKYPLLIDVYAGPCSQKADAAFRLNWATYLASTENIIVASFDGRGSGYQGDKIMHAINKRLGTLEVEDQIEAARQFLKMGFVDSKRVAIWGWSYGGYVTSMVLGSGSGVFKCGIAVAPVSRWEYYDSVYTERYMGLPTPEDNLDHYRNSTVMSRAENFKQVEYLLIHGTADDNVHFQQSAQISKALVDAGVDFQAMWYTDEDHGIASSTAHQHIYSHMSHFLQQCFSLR

Structure (SMILES)	IC50
Cc1ccc(-c2c(CN)c(CC(C)C)nc(C)c2C(=O)OCc2ccc(C(=O)O)cc2)cc1 [Example 170, 4-[({[5-(aminomethyl)-6-isobutyl-2-methyl-4-(4-methylphenyl)pyridin-3-yl]carbonyl}oxy)methyl]benzoic acid dihydrochloride]	100 nM

same assay, conditions: Experimental Example 1; SD rat plasma, Gly-Pro-p-NA substrate, 30° C., 1 hr, absorbance 405 nm; read-out: IC50 value (dipeptidyl peptidase IV inhibitory activity)

Structure (SMILES)	IC50
COC(=O)c1c(C)nc(CC(C)C)c(CN)c1-c1ccc(C)cc1 [Example 1, methyl 5-(aminomethyl)-6-isobutyl-2-methyl-4-(4-methylphenyl)nicotinate]	520 nM

same assay, conditions: Experimental Example 2; same manner as Experimental Example 1; SD rat plasma, Gly-Pro-p-NA substrate, 30° C.; read-out: IC50 value (dipeptidyl peptidase IV inhibitory activity)

Structure (SMILES)	IC50
Cc1ccc(-c2c(CN)c(CC(C)C)nc(C(C)C)c2C(=O)O)cc1 [Example 26, 5-(aminomethyl)-6-isobutyl-2-isopropyl-4-(4-methylphenyl)nicotinic acid dihydrochloride]	5.1 nM
Cc1ccc(-c2c(CSc3ccccc3C(N)=O)c(C)nc(CC(C)C)c2CN)cc1 [Example 210, 2-({[5-(aminomethyl)-6-isobutyl-2-methyl-4-(4-methylphenyl)pyridin-3-yl]methyl}thio)benzamide dihydrochloride]	12 nM
Cc1ccc(-c2c(CN)c(CC(C)C)nc(C)c2NC(=O)c2ccc(F)cc2)cc1 [Example 267, N-[5-(aminomethyl)-6-isobutyl-2-methyl-4-(4-methylphenyl)pyridin-3-yl]-4-fluorobenzamide dihydrochloride]	7.4 nM
COC(=O)c1cn(C)nc1OCc1c(C)nc(CC(C)C)c(CN)c1-c1ccc(C)cc1 [Example 305, methyl 3-{[5-(aminomethyl)-6-isobutyl-2-methyl-4-(4-methylphenyl)pyridin-3-yl]methoxy}-1-methyl-1H-pyrazole-4-carboxylate dihydrochloride]	3.5 nM
Cc1ccc(-c2c(CC(=O)N3CCOCC3)c(C)nc(CC(C)C)c2CN)cc1 [Example 312, {[2-isobutyl-6-methyl-4-(4-methylphenyl)-5-(2-morpholin-4-yl-2-oxoethyl)pyridin-3-yl]methyl}amine dihydrochloride]	20 nM
Cc1ccc(-c2c(CN)c(CC(C)C)nc(C)c2NC(=O)c2cnoc2)cc1 [Example 350, N-[5-(aminomethyl)-6-isobutyl-2-methyl-4-(4-methylphenyl)pyridin-3-yl]isoxazole-4-carboxamide dihydrochloride]	15 nM
CCOC(=O)C1CCN(C(=O)Cc2c(C)nc(CC(C)C)c(CN)c2-c2ccc(C)cc2)CC1 [Example 421, ethyl 1-{[5-(aminomethyl)-6-isobutyl-2-methyl-4-(4-methylphenyl)pyridin-3-yl]acetyl}piperidine-4-carboxylate dihydrochloride]	16 nM
Cc1ccc(-c2c(CC(=O)N3CCC(C(=O)O)CC3)c(C)nc(CC(C)C)c2CN)cc1 [Example 422, 1-{[5-(aminomethyl)-6-isobutyl-2-methyl-4-(4-methylphenyl)pyridin-3-yl]acetyl}piperidine-4-carboxylic acid dihydrochloride]	7.3 nM

test system: not given; experiment: not given; settings: not given

Structure (SMILES)	melting point
COC(=O)c1c(C)nc(CC(C)C)c(CN)c1-c1ccc(C)cc1 [Example 1, methyl 5-(aminomethyl)-6-isobutyl-2-methyl-4-(4-methylphenyl)nicotinate]	56 to 57 °C
Cc1nc(CC(C)C)c(CN)c(-c2ccc(Cl)cc2)c1C(=O)OC(C)(C)C [Example 23, tert-butyl 5-(aminomethyl)-4-(4-chlorophenyl)-6-isobutyl-2-methylnicotinate]	81 to 83 °C
